Each molecule was assayed against T1, FSHR (Homo sapiens, UniProt P23945) (assay: EC50 of cyclic AMP production in CHO FSHR cells + EC20 FSH (Assay A)). Conditions: not given.
T1 construct: expressed in transfected cells; host or cells: CHO (Cho-FSHR-LUC-1-1-43)
T1 sequence (P23945 18-695): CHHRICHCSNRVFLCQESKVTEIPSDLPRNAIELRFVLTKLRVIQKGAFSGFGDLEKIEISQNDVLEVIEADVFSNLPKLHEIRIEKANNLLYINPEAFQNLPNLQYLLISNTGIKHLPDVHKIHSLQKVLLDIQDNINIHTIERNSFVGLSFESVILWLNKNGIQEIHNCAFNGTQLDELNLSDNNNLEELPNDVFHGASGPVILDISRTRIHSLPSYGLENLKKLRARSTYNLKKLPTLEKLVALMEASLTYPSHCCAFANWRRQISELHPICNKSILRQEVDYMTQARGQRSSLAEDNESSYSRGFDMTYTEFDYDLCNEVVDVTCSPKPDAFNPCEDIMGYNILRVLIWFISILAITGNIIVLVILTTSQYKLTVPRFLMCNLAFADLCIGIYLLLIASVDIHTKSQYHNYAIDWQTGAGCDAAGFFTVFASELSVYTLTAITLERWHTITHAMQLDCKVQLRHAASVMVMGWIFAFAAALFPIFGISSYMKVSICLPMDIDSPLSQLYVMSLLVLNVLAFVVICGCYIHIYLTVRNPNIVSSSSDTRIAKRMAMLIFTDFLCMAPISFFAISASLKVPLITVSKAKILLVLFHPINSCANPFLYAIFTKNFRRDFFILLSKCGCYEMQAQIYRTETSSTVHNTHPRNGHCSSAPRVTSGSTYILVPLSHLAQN
Assay type: cell-based
Protocol: EC50 of Cyclic AMP Production in CHO FSHR Cells+EC20 FSH (Assay A)
2500 Cho-FSHR-LUC-1-1-43 cells were plated per well in 5 μl of phenol red free DMEM/F12+1% FBS. Cells were plated in 384 well, solid white low volume plates (Greiner 784075) by Multidrop. Cells were assayed by adding 100 μl of 2×EC20 FSH/IBMX in DMEM/F12+0.1% BSA) by Multidrop to 2 μl of test compound stamped in 384 well plates (compounds are diluted 1:50). The final FSH concentration was […], and the final IBMX concentration was 200 μM. The compound plate map was as follows: Column 1: 2 μl of DMSO; Column 2: 2 μl of DMSO; Columns 3-12 and 13-24: 2 μl of test compound, diluted 1:4 in 100% DMSO, or 2 μl of FSH, diluted 1:4 in DMEM/F12+0.1% BSA. The starting concentration for FSH was 50 nM (final concentration was 0.5 nM). Furthermore, Column 23 contained 2 μl of EC100 FSH reference (100×) (diluted in DMEM/F12+0.1% BSA) at a final concentration of 0.5 nM, and Column 24 contained 2 μl of 1 mM AS707664/2 reference compound 2. 5 μl of compound+EC20 FSH mixture were transferred to cell plates (1:2 dilution into 5 μl of cell media) The plates were incubated at 37° C. for 1 h. 10 μl of mixed HTRF (CisBio #62AM4PEC) reagents were added per well and incubated at room temperature for 1 h. The plates were read on Envision using the cAMP HTRF—low volume 384 well protocol. The readout was the calculated fluorescence ratio (665 nm/620 nm). Values given in percent (%) indicate the percental effect (response) at a certain concentration of agonist relative to the maximum response of the FSH standard.
`[2H]C([2H])([2H])OCC(C)(C)N(C(=O)c1nn(-c2ccsc2)c2c1COc1cc(OC)c(C=C(C)C)cc1-2)C([2H])([2H])[2H]` [Compound 58] was tested, and the EC50 was less than 0.1 µM.

Same assay, conditions: CHO FSHR cells + EC20 FSH, cAMP HTRF; read-out: Assay A: EC50 of cyclic AMP production
`COc1cc2c(cc1-c1ccn(C)c1)-c1c(c(C(=O)N(C)C3COC3)nn1-c1ccsc1)CO2` [Compound 103, 7-Methoxy-8-(1-methyl-1H-pyrrol-3-yl)-1-thiophen-3-yl-1,4-dihydro-chromeno[4,3-c]pyrazole-3-carboxylic acid methyl-oxetan-3-yl-amide] was tested, and the EC50 was 0.1 to 1 µM. Molecule `COc1cc2c(cc1C=C(C)C)-c1c(c(C(=O)N3CCOCC3(C)C)nn1-c1ccsc1)CO2` [Compound 39, (3,3-Dimethyl-morpholin-4-yl)-[7-methoxy-8-(2-methyl-propenyl)-1-thiophen-3-yl-1,4-dihydro-chromeno[4,3-c]pyrazol-3-yl]-methanone] has an EC50 of less than 0.1 µM. `COc1cc2c(cc1-c1ccn(C)c1)-c1c(c(C(=O)NC3CC(O)C3)nn1-c1ccsc1)CO2` (stereo not drawn) [Compound 136, 7-Methoxy-8-(1-methyl-1H-pyrrol-3-yl)-1-thiophen-3-yl-1,4-dihydro-chromeno[4,3-c]pyrazole-3-carboxylic acid (3-hydroxy-cyclobutyl)-amide] was tested, and the EC50 was greater than 5 µM. With `COc1cc2c(cc1C=C(C)C)-c1c(c(C(=O)N3CCC[C@H](C(=O)N4CCC4)CC3)nn1-c1ccsc1)CO2` [Compound 46, [(S)-4-(Azetidine-1-carbonyl)-azepan-1-yl]-[7-methoxy-8-(2-methyl-propenyl)-1-thiophen-3-yl-1,4-dihydro-chromeno[4,3-c]pyrazol-3-yl]-methanone] the EC50 was 1 to 5 µM. `COc1cc2c(cc1-c1ccn(C)n1)-c1c(c(C(=O)N3CCN(C(=O)OC(C)(C)C)CC3(C)C)nn1-c1ccsc1)CO2` [Compound 156, 4-[7-Methoxy-8-(1-methyl-1H-pyrazol-3-yl)-1-thiophen-3-yl-1,4-dihydro-chromeno[4,3-c]pyrazole-3-carbonyl]-3,3-dimethyl-piperazine-1-carboxylic acid tert-butyl ester] gave an EC50 of 0.1 to 1 µM. `COc1cc2c(cc1-c1cn[nH]c1)-c1c(c(C(=O)N3CCOCC3(C)C)nn1-c1ccsc1)CO2` [Compound 80, (3,3-Dimethyl-morpholin-4-yl)-[7-methoxy-8-(1H-pyrazol-4-yl)-1-thiophen-3-yl-1,4-dihydro-chromeno[4,3-c]pyrazol-3-yl]-methanone] gave an EC50 of less than 0.1 µM. Molecule `COc1cc2c(cc1-c1ccn(C)n1)-c1c(c(C(=O)N[C@H]3CC[C@@H](O)C3)nn1-c1ccsc1)CO2` [Compound 172, 7-Methoxy-8-(1-methyl-1H-pyrazol-3-yl)-1-thiophen-3-yl-1,4-dihydro-chromeno[4,3-c]pyrazole-3-carboxylic acid ((1S,3R)-3-hydroxy-cyclopentyl)-amide] has an EC50 greater than 5 µM. With `COc1cc2c(cc1-c1ccn(C)c1)-c1c(c(C(=O)N(C)C(C)(C)C)nn1-c1ccsc1)CO2` [Compound 55, 7-Methoxy-8-(1-methyl-1H-pyrrol-3-yl)-1-thiophen-3-yl-1,4-dihydro-chromeno[4,3-c]pyrazole-3-carboxylic acid tert-butyl-methyl-amide] the EC50 was less than 0.1 µM. In the case of `[2H]C([2H])([2H])N(CCN(C(=O)c1nn(-c2ccsc2)c2c1COc1cc(OC)c(C=C(C)C)cc1-2)C([2H])([2H])[2H])C(C)=O` [Compound 61], the EC50 is reported as less than 0.1 µM. `COc1cc2c(cc1C=C(C)C)-c1c(c(C(=O)N(C)CCN(C)C(C)=O)nn1-c1ccsc1)CO2` [Compound 34] gave an EC50 of less than 0.1 µM. With `COc1cc2c(cc1C=C(C)C)-c1c(c(C(=O)N(C)C(C)(C)C)nn1-c1cccs1)CO2` [Compound 90, 7-Methoxy-8-(2-methyl-propenyl)-1-thiophen-2-yl-1,4-dihydro-chromeno[4,3-c]pyrazole-3-carboxylic Acid tert-butyl-methyl-amide] the EC50 was less than 0.1 µM. For `COc1cc2c(cc1-c1ccn(C(C)C)n1)-c1c(c(C(=O)N3CCOCC3(C)C)nn1-c1ccsc1)CO2` [Compound 195, (3,3-Dimethyl-morpholin-4-yl)-[8-(1-isopropyl-1H-pyrazol-3-yl)-7-methoxy-1-thiophen-3-yl-1,4-dihydro-chromeno[4,3-c]pyrazol-3-yl]-methanone], the EC50 was less than 0.1 µM. `COc1cc2c(cc1-c1c[nH]nc1C)-c1c(c(C(=O)N(C)C(C)(C)C)nn1-c1ccsc1)CO2` [Compound 71, 7-Methoxy-8-(3-methyl-1H-pyrazol-4-yl)-1-thiophen-3-yl-1,4-dihydro-chromeno[4,3-c]pyrazole-3-carboxylic acid tert-butyl-methyl-amide] showed an EC50 of less than 0.1 µM. With `[2H]C([2H])([2H])O[C@H]1CC[C@H](N(C(=O)c2nn(-c3ccsc3)c3c2COc2cc(OC)c(-c4ccn(C)n4)cc2-3)C([2H])([2H])[2H])C1` [Compound 196] the EC50 was greater than 5 µM. `COc1cc2c(cc1C=C(C)C)-c1c(c(C(=O)N3CCC[C@@H](C(=O)N4CCC4)CC3)nn1-c1ccsc1)CO2` [Compound 45, [(R)-4-(Azetidine-1-carbonyl)-azepan-1-yl]-[7-methoxy-8-(2-methyl-propenyl)-1-thiophen-3-yl-1,4-dihydro-chromeno[4,3-c]pyrazol-3-yl]-methanone] was tested, and the EC50 was 0.1 to 1 µM. `COc1cc2c(cc1-c1ccn(C)n1)-c1c(c(C(=O)N3CCN(C(=O)OC(C)(C)C)CC34CC4)nn1-c1ccsc1)CO2` [Compound 158, 4-[7-Methoxy-8-(1-methyl-1H-pyrazol-3-yl)-1-thiophen-3-yl-1,4-dihydro-chromeno[4,3-c]pyrazole-3-carbonyl]-4,7-diaza-spiro[2.5]octane-7-carboxylic acid tert-butyl ester] showed an EC50 of 1 to 5 µM. Work on `COc1cc2c(cc1S(=O)(=O)C(C)C)-c1c(c(C(=O)N3CCOCC3(C)C)nn1-c1ccsc1)CO2` [Compound 112, (3,3-Dimethyl-morpholin-4-yl)-[7-methoxy-8-(propane-2-sulfonyl)-1-thiophen-3-yl-1,4-dihydro-chromeno[4,3-c]pyrazol-3-yl]-methanone] yielded an EC50 of 1 to 5 µM. Molecule `[2H]C([2H])([2H])N(CCN1CCOC1=O)C(=O)c1nn(-c2ccsc2)c2c1COc1cc(OC)c(-c3cn[nH]c3)cc1-2` [Compound 85] has an EC50 of less than 0.1 µM. In the case of `COc1cc2c(cc1C=C(C)C)-c1c(c(C(=O)N(C)C(C)(C)C)nn1-c1nccs1)CO2` [Compound 89, 7-Methoxy-8-(2-methyl-propenyl)-1-thiazol-2-yl-1,4-dihydro-chromeno[4,3-c]pyrazole-3-carboxylic Acid tert-butyl-methyl-amide], the EC50 is reported as less than 0.1 µM. In the case of `COc1cc2c(cc1C1=CCN(C)CC1)-c1c(c(C(=O)N(C)C(C)(C)C)nn1-c1ccsc1)CO2` [Compound 68, 7-Methoxy-8-(1-methyl-1,2,3,6-tetrahydro-pyridin-4-yl)-1-thiophen-3-yl-1,4-dihydro-chromeno[4,3-c]pyrazole-3-carboxylic acid tert-butyl-methyl-amide], the EC50 is reported as less than 0.1 µM. `CNC(=O)C1CCCN(C(=O)c2nn(-c3ccsc3)c3c2COc2cc(OC)c(C=C(C)C)cc2-3)CC1` (stereo not drawn) [Compound 42, 1-[7-Methoxy-8-(2-methyl-propenyl)-1-thiophen-3-yl-1,4-dihydro-chromeno[4,3-c]pyrazole-3-carbonyl]-azepane-4-carboxylic Acid Methylamide] was tested, and the EC50 was 0.1 to 1 µM. For `COc1cc2c(cc1-c1ccn(C)n1)-c1c(c(C(=O)NCC3(O)COC3)nn1-c1ccsc1)CO2` [Compound 165, 7-Methoxy-8-(1-methyl-1H-pyrazol-3-yl)-1-thiophen-3-yl-1,4-dihydro-chromeno[4,3-c]pyrazole-3-carboxylic acid (3-hydroxy-oxetan-3-ylmethyl)-amide], the EC50 was greater than 5 µM. `COc1cc2c(cc1-c1cnn(C)c1C)-c1c(c(C(=O)N3CCOCC3(C)C)nn1-c1ccsc1)CO2` [Compound 124, (3,3-Dimethyl-morpholin-4-yl)-[8-(1,5-dimethyl-1H-pyrazol-4-yl)-7-methoxy-1-thiophen-3-yl-1,4-dihydro-chromeno[4,3-c]pyrazol-3-yl]-methanone] showed an EC50 of less than 0.1 µM.

— patent US11365199B2, “Pyrazole compounds as modulators of FSHR and uses thereof” (Merck Patent GmbH, priority 2013, dated 2022)
